The values below come from patent publication US9045482B2, “Pyrido[4,3-B]indoles and methods of use” (Medivation Technologies, Inc., priority 2009, dated 2015).

The target in experiment [1] is T1, human recombinant adrenergic α2C receptor (Homo sapiens, UniProt P18825).
T1 construct: expressed in transfected cells; host or cells: insect Sf9 cells
T1 sequence (P18825 1-462): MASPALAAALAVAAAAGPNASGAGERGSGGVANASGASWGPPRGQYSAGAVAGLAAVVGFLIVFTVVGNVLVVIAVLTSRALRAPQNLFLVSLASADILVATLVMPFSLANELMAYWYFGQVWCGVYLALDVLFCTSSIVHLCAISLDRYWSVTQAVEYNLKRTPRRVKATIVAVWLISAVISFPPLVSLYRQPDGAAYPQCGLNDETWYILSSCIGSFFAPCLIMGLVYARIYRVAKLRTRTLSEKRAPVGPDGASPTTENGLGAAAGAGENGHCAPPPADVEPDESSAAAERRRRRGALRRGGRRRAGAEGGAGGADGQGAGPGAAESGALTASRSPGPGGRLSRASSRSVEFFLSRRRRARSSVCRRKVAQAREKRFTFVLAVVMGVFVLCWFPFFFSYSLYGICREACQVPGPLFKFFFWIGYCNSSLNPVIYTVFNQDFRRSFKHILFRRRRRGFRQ
The experiment in a line: Adrenergic α2C radioligand binding ([3H]MK-912). Conditions: 0.1 μM ligand conc. On the procedure: To evaluate in radioligand binding assays the activity of compounds of the invention, human recombinant adrenergic α2C receptor expressed in insect Sf9 cells [Uhlen, S. et al., J. Pharmacol. Exp. Ther. 1994), 271:1558] in a modified Tris-HCl buffer (50 mM Tris-HCl, pH 7.4, 12.5 mM MgCl2, 2 mM EDTA) was used. Compounds of the invention were incubated with 1 nM [^3H]MK-912 for 60 min at 25° C. Non-specific binding was estimated in the presence of 10 μM WB-4101. Receptor proteins were filtered and washed, the filters were then counted to determine [^3H]MK-912 specifically bound. Compounds were screened at 1 μM or lower, using 1% DMSO as vehicle. Compounds of the invention were tested in this biochemical assay. Biochemical assay results for representative compounds were presented as the percent inhibition of specific binding in Table 3.

Experiment [2] addresses human recombinant histamine H1 receptor (Homo sapiens, UniProt P35367). The experiment in a line: Histamine H1 radioligand binding ([3H]Pyrilamine). The following applies: read-out: Binding data (Percentage Inhibition) Histamine Binding H1. On the procedure: To evaluate in radioligand binding assays the activity of compounds of the invention, human recombinant histamine H1 receptor expressed in Chinese hamster ovary (CHO) cells [De Backer, M. et al., Biochem. Biophys. Res. Comm. (1993), 197(3):1601] in a modified Tris-HCl buffer (50 mM Tris-HCl, pH 7.4, 2 mM MgCl2, 100 mM NaCl, 250 mM Sucrose) was used. Compounds of the invention were incubated with 1.2 nM [^3H]Pyrilamine for 180 min at 25° C. Non-specific binding was estimated in the presence of 1 μM pyrilamine. Receptor proteins were filtered and washed, the filters were then counted to determine [^3H]Pyrilamine specifically bound. Compounds were screened at 1 μM or lower, using 1% DMSO as vehicle. Biochemical assay results are presented as the percent inhibition of specific binding in Table 2.

The target in experiment [3] is T2, rat adrenergic α1A receptor (Rattus norvegicus, UniProt P43140).
T2 construct: rat adrenergic α1A receptor obtained from Wistar Rat submaxillary glands; from tissue; host or cells: Wistar Rat submaxillary glands
T2 sequence (P43140 1-466): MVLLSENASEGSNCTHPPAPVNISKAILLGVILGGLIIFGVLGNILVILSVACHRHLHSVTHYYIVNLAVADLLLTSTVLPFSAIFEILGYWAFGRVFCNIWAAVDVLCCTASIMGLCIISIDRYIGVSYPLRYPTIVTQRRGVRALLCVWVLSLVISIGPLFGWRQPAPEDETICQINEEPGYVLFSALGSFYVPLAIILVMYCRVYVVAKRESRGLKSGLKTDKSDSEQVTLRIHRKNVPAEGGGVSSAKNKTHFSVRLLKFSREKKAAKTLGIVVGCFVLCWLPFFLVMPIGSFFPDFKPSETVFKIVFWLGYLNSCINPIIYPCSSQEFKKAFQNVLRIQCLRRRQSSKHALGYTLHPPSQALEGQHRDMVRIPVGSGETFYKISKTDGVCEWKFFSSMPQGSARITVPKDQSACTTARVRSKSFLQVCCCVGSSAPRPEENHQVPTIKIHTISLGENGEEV
The experiment in a line: Adrenergic α1A radioligand binding ([3H]Prozosin). On the set-up: species or system Wistar Rat. The following applies: 0.1 μM ligand conc. How it is done: To evaluate in radioligand binding assays the activity of compounds of the invention, rat adrenergic α1A receptor obtained from Wistar Rat submaxillary glands [Michel, A. D. et al., Br. J. Pharmacol. (1989), 98:883] in a modified Tris-HCl buffer (50 mM Tris-HCl buffer, pH 7.4, 0.5 mM EDTA) was used. Compounds of the invention were incubated with 0.25 nM [^3H]Prozosin for 60 min at 25° C. Non-specific binding was estimated in the presence of 10 μM phentolamine. Receptor proteins were filtered and washed, the filters were then counted to determine [^3H]Prozosin specifically bound. Compounds of the invention were screened at 1 μM or lower, using 1% DMSO as vehicle. Compounds of the invention were tested in this biochemical assay. Biochemical assay results for representative compounds were presented as the percent inhibition of specific binding in Table 3.

The target of experiment [4] is human recombinant serotonin (5-Hydroxytryptamine) 5-HT7 receptor (Homo sapiens, UniProt P34969). The experiment in a line: Serotonin 5-HT7 radioligand binding ([3H]LSD). The following applies: 0.1 μM ligand concentration. How it is done:
Compounds of invention were incubated with 5.5 nM [^3H]Lysergic acid diethylamide (LSD) for 2 h at 25° C. […] Receptor proteins were filtered and washed, the filters were then counted to determine [^3H]LSD specifically bound. Compounds were screened at 1 μM or lower, using 1% DMSO as vehicle. Biochemical assay results are presented as the percent inhibition of specific binding in Table 4.

Experiment [5] addresses T3, human recombinant serotonin (5-Hydroxytryptamine) 5-HT5A receptor (Homo sapiens, UniProt P47898).
T3 construct: expressed in transfected cells; host or cells: Chinese hamster ovary (CHO-K1) cells
The experiment in a line: Serotonin 5-HT5A radioligand binding ([3H]LSD). The following applies: 0.1 μM ligand concentration. How it is done: Compounds of the invention were incubated with 1.7 nM [^3H]Lysergic acid diethylamide (LSD) for 60 min at 37° C. […] Receptor proteins were filtered and washed, the filters were then counted to determine [^3H]LSD specifically bound. Compounds were screened at 1 μM or lower, using 1% DMSO as vehicle. Biochemical assay results are presented as the percent inhibition of specific binding in Table 4.

Chain of human recombinant histamine H1 receptor (P35367 whole entry): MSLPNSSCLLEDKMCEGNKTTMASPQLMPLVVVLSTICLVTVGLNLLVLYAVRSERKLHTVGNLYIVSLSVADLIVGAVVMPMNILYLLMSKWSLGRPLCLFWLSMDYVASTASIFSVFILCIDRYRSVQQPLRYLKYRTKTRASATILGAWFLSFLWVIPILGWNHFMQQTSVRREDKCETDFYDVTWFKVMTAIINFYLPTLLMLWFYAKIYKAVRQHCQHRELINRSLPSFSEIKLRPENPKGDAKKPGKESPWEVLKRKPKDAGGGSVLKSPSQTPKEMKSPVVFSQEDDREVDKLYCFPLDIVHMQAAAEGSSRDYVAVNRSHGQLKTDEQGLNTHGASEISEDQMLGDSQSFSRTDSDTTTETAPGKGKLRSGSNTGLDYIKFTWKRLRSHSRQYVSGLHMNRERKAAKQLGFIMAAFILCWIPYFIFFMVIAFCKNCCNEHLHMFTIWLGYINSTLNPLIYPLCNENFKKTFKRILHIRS
Chain of human recombinant serotonin (5-Hydroxytryptamine) 5-HT7 receptor (P34969 whole entry): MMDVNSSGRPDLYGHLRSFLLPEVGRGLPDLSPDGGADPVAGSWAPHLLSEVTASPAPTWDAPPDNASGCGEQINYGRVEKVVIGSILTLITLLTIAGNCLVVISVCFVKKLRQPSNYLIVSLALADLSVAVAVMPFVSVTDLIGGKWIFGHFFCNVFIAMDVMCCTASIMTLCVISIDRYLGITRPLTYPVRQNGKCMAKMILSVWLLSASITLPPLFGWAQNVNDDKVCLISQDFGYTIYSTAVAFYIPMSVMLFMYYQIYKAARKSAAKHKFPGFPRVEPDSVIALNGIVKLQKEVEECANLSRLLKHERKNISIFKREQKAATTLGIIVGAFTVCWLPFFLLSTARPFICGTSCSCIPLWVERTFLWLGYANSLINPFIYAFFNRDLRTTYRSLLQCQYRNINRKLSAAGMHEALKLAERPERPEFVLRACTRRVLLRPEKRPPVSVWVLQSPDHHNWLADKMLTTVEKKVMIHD
T3 sequence (P47898 whole entry): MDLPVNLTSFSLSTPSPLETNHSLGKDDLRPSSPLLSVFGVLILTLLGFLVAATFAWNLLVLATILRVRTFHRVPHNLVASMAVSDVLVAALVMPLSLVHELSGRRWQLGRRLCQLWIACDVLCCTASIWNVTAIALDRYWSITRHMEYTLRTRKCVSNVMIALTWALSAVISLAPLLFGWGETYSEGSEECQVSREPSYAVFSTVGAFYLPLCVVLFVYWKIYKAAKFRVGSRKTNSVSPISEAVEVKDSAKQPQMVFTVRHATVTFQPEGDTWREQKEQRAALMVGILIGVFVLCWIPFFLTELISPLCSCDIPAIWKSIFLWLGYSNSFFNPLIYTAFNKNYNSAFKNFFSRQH

Consider `Cc1ccc(CCn2c3c(c4cccnc42)C2CCCN2CC3)cn1` (stereo not shown) [Compound 34, 7-(2-(6-methylpyridin-3-yl)ethyl)-2,3,5,6,7,1c-hexahydro-1H-pyrido[3′,2′:4,5]pyrrolo[2,3-g]indolizine], for which, in experiment [1], the “Percent Inhibition of ligand binding Adrenergic α2C” value worked out at 1%. Further, the inhibition at 0.1 µM in experiment [2] was found to be 22%. Moreover, in experiment [3], the “Percent Inhibition of ligand binding Adrenergic α1A” value is reported as −9%. The “Percent Inhibition of ligand binding Serotonin 5-HT7” value in experiment [4] was 18%. The “Percent Inhibition of ligand binding Serotonin 5-HT5A” value in experiment [5] was determined as 6%.

With `O=C(Cn1c2c(c3cccnc31)CN1CCCC1C2)N1CCCCC1` (stereo not shown) [Compound 37, 1-(piperidin-1-yl)-2-(8,9,9a,10-tetrahydro-5H-pyrido[3′,2′:4,5]pyrrolo[3,2-f]indolizin-11(7H)-yl)ethanone], in experiment [1], the “Percent Inhibition of ligand binding Adrenergic α2C” value came out at 4%. Besides, the inhibition at 0.1 µM in experiment [2] is 6%. The “Percent Inhibition of ligand binding Adrenergic α1A” value in experiment [3] is listed as −6%. Moreover, the “Percent Inhibition of ligand binding Serotonin 5-HT7” value in experiment [4] worked out at 3%. Moreover, in experiment [5], the “Percent Inhibition of ligand binding Serotonin 5-HT5A” value is listed as 8%.

As to `C/C(=C\n1c2c(c3cc(C)ccc31)C1CCCN1CC2)c1ccc(C)nc1` (stereo not shown) [Compound 32, (E)-10-methyl-7-(2-(6-methylpyridin-3-yl)prop-1-enyl)-2,3,5,6,7,11c-hexahydro-1H-indolizino[7,8-b]indole], the “Percent Inhibition of ligand binding Adrenergic α2C” value in experiment [1] was 45%. Moreover, the inhibition at 0.1 µM in experiment [2] was determined as 1%. Also, in experiment [3], the “Percent Inhibition of ligand binding Adrenergic α1A” value is given as 55%. Also, in experiment [4], the “Percent Inhibition of ligand binding Serotonin 5-HT7” value was 61%. Besides, the “Percent Inhibition of ligand binding Serotonin 5-HT5A” value in experiment [5] worked out at 24%.

On to `Cc1cnc2c(c1)c1c(n2CCc2ccc(C)nc2)CCN2CCCC12` (stereo not shown) [Compound 33, 10-methyl-7-(2-(6-methylpyridin-3-yl)ethyl)-2,3,5,6,7,1c-hexahydro-1H-pyrido[3′,2′:4,5]pyrrolo[2,3-g]indolizine], for which the “Percent Inhibition of ligand binding Adrenergic α2C” value in experiment [1] is on record as 4%. For the same compound, the inhibition at 0.1 µM in experiment [2] amounted to 73%. Moreover, the “Percent Inhibition of ligand binding Adrenergic α1A” value in experiment [3] came to 26%. The “Percent Inhibition of ligand binding Serotonin 5-HT7” value in experiment [4] amounted to 44%. Moreover, the “Percent Inhibition of ligand binding Serotonin 5-HT5A” value in experiment [5] came out at 0%.

On to `O=C(Cn1c2c(c3cccnc31)C1CCCN1CC2)N1CCCCC1` (stereo not shown) [Compound 38, 1-(piperidin-1-yl)-2-(2,3,5,6-tetrahydro-1H-pyrido[3′,2′:4,5]pyrrolo[2,3-g]indolizin-7(11cH)-yl)ethanone], for which the “Percent Inhibition of ligand binding Adrenergic α2C” value in experiment [1] is −6%. The inhibition at 0.1 µM in experiment [2] worked out at 5%. Also, in experiment [3], the “Percent Inhibition of ligand binding Adrenergic α1A” value is on record as −6%. The “Percent Inhibition of ligand binding Serotonin 5-HT7” value in experiment [4] is reported as 23%. Also, the “Percent Inhibition of ligand binding Serotonin 5-HT5A” value in experiment [5] is on record as 8%.

Regarding `Fc1ccc(CCn2c3c(c4cc(Cl)ccc42)C2CCCN2CC3)cc1` (stereo not shown) [Compound 1, 7-(4-fluorophenethyl)-10-chloro-2,3,5,6,7,11c-hexahydro-1H-indolizino[7,8-b]indole], the inhibition at 1 µM in experiment [2] was -2%.

As for `Cc1ccc(CCn2c3c(c4cccnc42)CN2CCCC2C3)cn1` (stereo not shown) [Compound 35, 11-(2-(6-methylpyridin-3-yl)ethyl)-7,8,9,9a,10,11-hexahydro-5H-pyrido[3′,2′:4,5]pyrrolo[3,2-f]indolizine], the “Percent Inhibition of ligand binding Adrenergic α2C” value in experiment [1] worked out at 2%. Moreover, the inhibition at 0.1 µM in experiment [2] turned out to be 50%. Moreover, in experiment [3], the “Percent Inhibition of ligand binding Adrenergic α1A” value is on record as −2%. Further, in experiment [4], the “Percent Inhibition of ligand binding Serotonin 5-HT7” value was 6%. The “Percent Inhibition of ligand binding Serotonin 5-HT5A” value in experiment [5] was found to be 10%.

With `Cc1cnc2c(c1)c1c(n2CCc2ccc(C)nc2)CC2CCCN2C1` (stereo not shown) [Compound 36, 3-methyl-11-(2-(6-methylpyridin-3-yl)ethyl)-7,8,9,9a,10,11-hexahydro-5H-pyrido[3′,2′:4,5]pyrrolo[3,2-f]indolizine], the “Percent Inhibition of ligand binding Adrenergic α2C” value in experiment [1] amounted to 3%. Moreover, in experiment [2], the inhibition at 0.1 µM is 96%. In addition, in experiment [3], the “Percent Inhibition of ligand binding Adrenergic α1A” value worked out at 26%. Also, the “Percent Inhibition of ligand binding Serotonin 5-HT7” value in experiment [4] worked out at 23%. In addition, the “Percent Inhibition of ligand binding Serotonin 5-HT5A” value in experiment [5] is reported as 25%.

Turning to `Fc1ccc(CCn2c3c(c4cc(Cl)ccc42)CN2CCCC2C3)cc1` (stereo not shown) [Compound 2, 10-(4-fluorophenethyl)-7-chloro-2,3,5,10,11,11a-hexahydro-1H-indolizino[7,6-b]indole], the inhibition at 1 µM in experiment [2] is 9%.

In general, inhibition refers to the change of the read-out against control, counted positive when it falls.
